Test [1] concerns T47D. As to the kind of experiment: Growth inhibition of human T47D cells after 48 hrs. The format is functional.
The subject of test [2] is HCT-116. Briefly: Growth inhibition of human HCT116 cells after 48 hrs. It is filed as functional. The settings on record: HCT-116, 48 h.
Test [3] concerns SNU-398. As to the kind of experiment: Growth inhibition of human SNU398 cells after 48 hrs. The format is functional. The settings on record: SNU-398, 48 h.
Test [4] relates to T47D. As to the kind of experiment: Induction of apoptosis in human T47D cells assessed as caspase activation after 48 hrs by HTS assay. The format is functional, cell-based.
Test [5] deals with HCT-116. Briefly: Induction of apoptosis in human HCT116 cells assessed as caspase activation after 48 hrs by HTS assay. The settings on record: HCT-116, 48 h. It is filed as functional, cell-based.
Test [6] concerns SNU-398. Briefly: Induction of apoptosis in human SNU398 cells assessed as caspase activation after 48 hrs by HTS assay. It is filed as functional, cell-based. The settings on record: SNU-398, 48 h.
Test [7] relates to SNU-398. As to the kind of experiment: Ratio of drug to paclitaxel for induction of apoptosis in human SNU398 cells assessed as caspase activation after 48 hrs by HTS assay. It is filed as functional.
Test [8] relates to HCT-116. As to the kind of experiment: Ratio of drug to paclitaxel for induction of apoptosis in human HCT116 cells assessed as caspase activation after 48 hrs by HTS assay. The format is functional.
Test [9] deals with HCT-116. Briefly: Ratio of drug to vinblastin for induction of apoptosis in human HCT116 cells assessed as caspase activation after 48 hrs by HTS assay. It is filed as functional.
Test [10] relates to T47D. As to the kind of experiment: Ratio of drug to vinblastin for induction of apoptosis in human T47D cells assessed as caspase activation after 48 hrs by HTS assay. It is filed as functional.
The nature of test [11]: Inhibition of tubulin polymerization at 2 uM.
Test [12] is described as follows: Inhibition of tubulin polymerization at 0.5 uM.
Test [13] deals with SNU-398. Briefly: Ratio of drug to vinblastin for induction of apoptosis in human SNU398 cells assessed as caspase activation after 48 hrs by HTS assay. It is filed as functional.
The test system of test [14] is T47D. Briefly: Ratio of drug to paclitaxel for induction of apoptosis in human T47D cells assessed as caspase activation after 48 hrs by HTS assay. It is filed as functional.
Test [15] is described as follows: Inhibition of tubulin polymerization at 3 uM.
The test system of test [16] is T47D. Briefly: Induction of apoptosis in human T47D cells assessed as accumulation at G2M phase at 2 uM after 24 hrs by propidium iodide-based flow cytometry. The format is functional.
The test system of test [17] is T47D. As to the kind of experiment: Induction of apoptosis in human T47D cells assessed as accumulation at G2M phase at 2 uM after 48 hrs by propidium iodide-based flow cytometry. The format is functional.
The test system of test [18] is T47D. As to the kind of experiment: Induction of apoptosis in human T47D cells assessed as accumulation at G1 phase at 2 uM after 24 hrs by propidium iodide-based flow cytometry. The format is functional.
The subject of test [19] is T47D. As to the kind of experiment: Induction of apoptosis in human T47D cells assessed as accumulation at S phase at 2 uM after 24 hrs by propidium iodide-based flow cytometry. It is filed as functional. (A flow cytometer gives signals particle by particle.)
Test [20] deals with T47D. As to the kind of experiment: Induction of apoptosis in human T47D cells assessed as accumulation at sub G1 phase at 2 uM after 48 hrs by propidium iodide-based flow cytometry. The format is functional.
Test [21] deals with T47D. As to the kind of experiment: Induction of apoptosis in human T47D cells assessed as accumulation at G1 phase at 2 uM after 48 hrs by propidium iodide-based flow cytometry. It is filed as functional.
The subject of test [22] is T47D. As to the kind of experiment: Induction of apoptosis in human T47D cells assessed as accumulation at sub G1 phase at 2 uM after 24 hrs by propidium iodide-based flow cytometry. It is filed as functional.
Test [23] deals with T47D. As to the kind of experiment: Induction of apoptosis in human T47D cells assessed as accumulation at S phase at 2 uM after 48 hrs by propidium iodide-based flow cytometry. The format is functional.

The source of these data is ChEMBL document CHEMBL1159042, “Discovery of N-aryl-9-oxo-9H-fluorene-1-carboxamides as a new series of apoptosis inducers using a cell- and caspase-based high-throughput screening assay. 2. Structure-activity relationships of the 9-oxo-9H-fluorene ring” (Bioorg Med Chem Lett, 2010).

SMILES strings stand for the structures. Active and inactive are the calls of the source. The rule behind the calls is not given here.

As to `CC(=O)O[C@H]1C(=O)[C@@]2(C)[C@H]([C@H](OC(=O)c3ccccc3)[C@]3(O)C[C@H](OC(=O)[C@H](O)[C@@H](NC(=O)c4ccccc4)c4ccccc4)C(C)=C1C3(C)C)[C@]1(OC(C)=O)CO[C@@H]1C[C@@H]2O` [PACLITAXEL], the GI50 worked out at 26 nM with T47D [1], 60 nM with HCT-116 [2] and 61 nM in the test on SNU-398 [3].

For the compound `O=C(Nc1ccccc1-n1cccn1)c1cccc2c1Cc1ccccc1-2`, the values for the EC50 in the test with T47D [4], in the test with HCT-116 [5] and with SNU-398 [6] were 3200 nM, 6200 nM and 6900 nM, respectively.

Regarding `O=C(Nc1ccccc1-n1cccn1)c1cccc2c1C(=O)c1ccccc1-2`, the values for the GI50 in the test on T47D [1], in the test with HCT-116 [2] and in the test on SNU-398 [3] were 160 nM, 1100 nM and 780 nM, respectively.

With `O=C(Nc1ccccc1-n1cccn1)c1ccccc1C(=O)c1ccccc1`, the EC50 with T47D [4], in the test with HCT-116 [5] and with SNU-398 [6] was above 10000 nM throughout.

For `O=C(Nc1ccccc1-n1cccn1)c1cccc2c1OCC2`, the half-maximal effective concentration (EC50) in the test with T47D [4], in the test with HCT-116 [5] and in the test on SNU-398 [6] was above 10000 nM in each case.

Consider `Cc1ccccc1NC(=O)c1cccc2c1C(O)c1ccccc1-2` (configuration not stated), for which the EC50 in the test on T47D [4] is 3000 nM; with HCT-116 [5] it was above 10000 nM; in the test with SNU-398 [6], above 10000 nM.

Take `O=C(Nc1ccccc1-n1cccn1)c1cccc2c3ccccc3[s+]([O-])c12` (configuration not stated): the EC50 with T47D [4], with HCT-116 [5] and in the test on SNU-398 [6] was above 10000 nM throughout.

`O=C(Nc1ccccc1-n1cccn1)c1cccc2c1C(=O)c1cc([N+](=O)[O-])ccc1-2`: the EC50 with T47D [4] came out at 290 nM; with HCT-116 [5], 220 nM; in the test on SNU-398 [6], 150 nM. For the same compound, the Ratio with SNU-398 [7], in the test on HCT-116 [8], in the test on HCT-116 [9], with T47D [10], in the test on SNU-398 [13] and with T47D [14] was below 10 each time. Moreover, the GI50 was 110 nM with T47D [1], 420 nM in the test with HCT-116 [2] and 72 nM in the test on SNU-398 [3]. Besides, the inhibition in test [11] and in [15] was 50% each time. Also, the inhibition entry in test [12] is “Active”.

For `Cc1ccccc1NC(=O)c1cccc2c1Cc1ccccc1-2`, the values for the EC50 in the test on T47D [4], in the test with HCT-116 [5] and in the test with SNU-398 [6] were 1700 nM, above 10000 nM and above 10000 nM, respectively.

Turning to `O=C(Nc1ccccc1-n1cc(Br)cn1)c1cccc2c1C(=O)c1cc([N+](=O)[O-])ccc1-2`, the EC50 with T47D [4] worked out at 1300 nM; with HCT-116 [5], 1500 nM; in the test with SNU-398 [6] it was 1400 nM.

Regarding `O=C(Nc1ccccc1-n1cccn1)c1cccc2c1oc1ccccc12`, the EC50 in the test on T47D [4], in the test with HCT-116 [5] and in the test with SNU-398 [6] was above 10000 nM in each case.

For `Nc1ccc2c(c1)C(=O)c1c(C(=O)Nc3ccccc3-n3cccn3)cccc1-2`, the EC50 in the test with T47D [4] amounted to 970 nM; in the test on HCT-116 [5], 370 nM; in the test with SNU-398 [6], 150 nM. Moreover, the Ratio with SNU-398 [7], in the test with HCT-116 [8], with HCT-116 [9], in the test on T47D [10], in the test with SNU-398 [13] and in the test on T47D [14] was below 10 each time. In addition, the GI50 with T47D [1] was found to be 150 nM; with HCT-116 [2], 510 nM; in the test with SNU-398 [3], 84 nM. Further, the Activity with T47D [16] was determined as 60%; in the test with T47D [17] it was 24%; in the test on T47D [18], 11%; in the test on T47D [19], 14%; in the test with T47D [20] it was 50%; in the test with T47D [21], 10%. The Activity with T47D [22] is 12%; in the test with T47D [23], 10%. The inhibition in test [11] and in test [15] was 50% in each case. The inhibition entry in test [12] was “Active”.

With `O=C(Nc1ccccc1-n1cccn1)c1cccc2c1S(=O)(=O)c1ccccc1-2`, the concentration giving a half-maximal response (EC50) with T47D [4] was above 10000 nM; in the test with HCT-116 [5], above 10000 nM; in the test with SNU-398 [6], 480 nM.

For `[N-]=[N+]=Nc1ccc2c(c1)C(=O)c1c(C(=O)Nc3ccccc3-n3cccn3)cccc1-2`, the EC50 was 470 nM in the test on T47D [4], 290 nM with HCT-116 [5] and 150 nM with SNU-398 [6].

For the compound `Cc1ccc(NC(=O)c2cccc3c2Cc2ccccc2-3)c(C)c1`, the EC50 in the test with T47D [4], in the test on HCT-116 [5] and in the test with SNU-398 [6] was above 10000 nM each time.

For the compound `O=C(Nc1ccccc1-n1cccn1)c1cccc2c1sc1ccccc12`, the EC50 in the test on T47D [4] stood at 2100 nM; with HCT-116 [5] it was 2200 nM; with SNU-398 [6] it was 1500 nM.

Take `O=C(Nc1ccccc1-n1cccn1)c1cccc2c1[nH]c1ccccc12`: the EC50 in the test with T47D [4], in the test on HCT-116 [5] and in the test on SNU-398 [6] was above 10000 nM each time.

`CC[C@]1(O)C[C@@H]2CN(CCc3c([nH]c4ccccc34)[C@@](C(=O)OC)(c3cc4c(cc3OC)N(C)[C@H]3[C@@](O)(C(=O)OC)[C@H](OC(C)=O)[C@]5(CC)C=CCN6CC[C@]43[C@@H]65)C2)C1` [VINBLASTINE]: the GI50 with T47D [1] was found to be 7 nM; with HCT-116 [2] it was 10 nM; in the test on SNU-398 [3], 5 nM.

`Cc1cccc(NC(=O)c2cccc3c2Cc2ccccc2-3)c1C`: the EC50 in the test on T47D [4], in the test on HCT-116 [5] and with SNU-398 [6] was above 10000 nM throughout.

Regarding `Cc1ccc(C)c(NC(=O)c2cccc3c2Cc2ccccc2-3)c1`, the EC50 with T47D [4] is 2400 nM; with HCT-116 [5], above 10000 nM; in the test on SNU-398 [6] it was above 10000 nM.

The GI50 is the concentration at which growth is held to half of that of the control. Lower therefore signals more potent growth inhibition. The EC50 is the concentration at which the effect is half-maximal. As usually defined, the inhibition is how much of the control response was suppressed.
